Results: publication PMC11284788, “NN1213 – A Potent, Long-Acting, and Selective Analog of Human Amylin” (Journal of Medicinal Chemistry, 2024)
Read-outs that look alike come from different tables or passages of the source. Numbered stars: 1 amine (or outer) side, 2 acyl side, 3 side chain; on linkers, the order of the positions; unused ones are H or OH. Bridge positions count the residues as written; N and C are the ends. Side chains are listed from the residue outwards. Peptide text beside a SMILES is read from it. * marks the point of attachment. C20 diacid = O=C(O)CCCCCCCCCCCCCCCCCCC(=O)*; γGlu = O=C(O)[C@H](CCC(=O)[*:2])N[*:1]

How the values were obtained:
rAMY3R = molecular target: T1, rAMY3R (Rattus norvegicus, UniProt P32214+Q9JJ73); assay: scintillation proximity binding assay, rAMY3R membranes; design: expressed in transfected cells; host or cells: BHK tk-ts 13, transient co-transfection (FuGENE 6); settings: for ratio rCTR/rAMY3R: ratio of binding IC50 values
T1 sequence (P32214 25-479 isoform P32214-2 limits assumed): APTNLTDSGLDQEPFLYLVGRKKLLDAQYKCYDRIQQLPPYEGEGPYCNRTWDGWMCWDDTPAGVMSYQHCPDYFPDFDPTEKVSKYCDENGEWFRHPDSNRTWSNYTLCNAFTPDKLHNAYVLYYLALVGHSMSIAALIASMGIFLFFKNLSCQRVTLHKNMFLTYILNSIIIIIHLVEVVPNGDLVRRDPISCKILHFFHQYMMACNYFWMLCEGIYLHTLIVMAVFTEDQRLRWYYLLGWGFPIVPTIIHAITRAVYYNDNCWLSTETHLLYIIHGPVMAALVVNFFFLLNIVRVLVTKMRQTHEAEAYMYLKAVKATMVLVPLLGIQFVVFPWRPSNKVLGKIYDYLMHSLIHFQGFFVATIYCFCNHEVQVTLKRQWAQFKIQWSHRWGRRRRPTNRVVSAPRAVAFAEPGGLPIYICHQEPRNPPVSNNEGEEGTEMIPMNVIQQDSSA
T1 sequence (Q9JJ73 23-147 partner): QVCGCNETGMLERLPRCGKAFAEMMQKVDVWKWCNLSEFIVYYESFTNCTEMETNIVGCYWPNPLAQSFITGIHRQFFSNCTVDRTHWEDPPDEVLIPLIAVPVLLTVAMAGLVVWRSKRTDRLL
Procedure: The apparent binding affinities were determined using a scintillation proximity assay with beads from PerkinElmer and cell membranes containing the AMY3R or CTRs. […] Membranes were harvested and membranes were prepared and kept at −80 °C until use. The assay was performed in a 384-well Optiplate (PerkinElmer). Membranes were mixed with scintillation proximity assay beads in a 1:1 ratio. […] Samples were analyzed on a TopCounter (Packard). The IC50 values were calculated using GraphPad Prism. See Supporting Information S7: SAR Screening Assay Methods (Binding Assays (Human and Rat)) for more information.
Binding Assays (Human and Rat). Brief descriptions of the methods used to determine binding affinities for SAR analysis are described below. Curves and IC50 values were plotted and calculated in GraphPad Prism using nonlinear regression (one site binding competition analysis), with pIC50 values […]
values were used to calculate the binding affinity ratios in order to express the selectivity of compounds for the AMY3R versus the CTR.
CTR Binding Assay. The binding assay was performed using scintillation proximity assay (SPA) beads (RPNQ0001) from PerkinElmer and cell membranes containing either the hCTR or rCTR. BHK […]
(§1) Membranes were prepared in the following way: the cells were rinsed with PBS and incubated with Versene for approximately 5 min before harvesting. The cells were flushed with PBS and the cell-suspension was centrifuged for 5 min at 1000 rpm. Cells were homogenized (Ultra Turrax) in a buffer […]
containing 20 mM Na-HEPES and 0.1 mM EDTA (pH 7.4, buffer 2). The resulting pellet was re-suspended in buffer 2 and protein concentration was measured (BCA protein assay, Pierce). The homogenate was kept cold during the whole procedure. The membranes were stored at –80 °C until […]
The binding assay was performed in a 384-well Optiplate (PerkinElmer) in a total volume of 40 μL.
Membranes were mixed with SPA beads in a 1:1 ratio. […]
mg/well. Test compounds were dissolved in DMSO and further diluted in assay buffer (50 mM HEPES, pH 7.4, 1 mM CaCl2, 5 mM MgCl2, 0.1% ovalbumin, and 0.02% Tween-20).
Calcitonin (NEX422 PerkinElmer) was dissolved in assay buffer and added to the Optiplate at a final […]
prior to centrifugation (1500 rpm, 10 min). Samples were analyzed on TopCounter (Packard).
AMY3R Binding Assay. The binding assay was performed using SPA beads (RPNQ0001) from PerkinElmer and cell membranes containing either the hAMY3R or rAMY3R. BHK tk-ts 13 cells were […]
as §1, with “and cultured as described above. Membranes” for “Membranes”, “buffer containing 20 mM Na-HEPES and 10 mM EDTA (pH 7.4), and” for “buffer”
The resulting pellet was re-suspended, homogenized, and
7.4, buffer 2). The resulting pellet was re-suspended in buffer 2 and protein concentration was measured (BCA protein assay, Pierce). The homogenate was kept cold during the whole procedure.
The membranes were stored at –80 °C until use.
Membranes were mixed with SPA beads in a 1:1 ratio. The final concentration of SPA beads was 0.05 mg/well. Test compounds were dissolved in DMSO and further diluted in assay buffer (50 mM […]
rAMY (NEX448 PerkinElmer) was dissolved in assay buffer and added to the Optiplate at a final

[1] = HMWP content by size-exclusion chromatography; type: physicochemical; settings: covalent dimers and polymers prior to fibril formation testing, SEC, % of total absorbance area at 215 nm
Summary of the method: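 HMWP percentage is the covalent dimer/polymer peak area relative to total absorbance area, with extinction coefficients taken as equal to the main peak. Isocratic size-exclusion elution used 50% (v/v) 2-propanol containing 0.5 M NaCl and phosphate buffer; measured on analogs prior to fibril assays.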

[2] = SPA binding assay, Tables S13 and S15

| SMILES | rAMY3R pIC50 (rAMY3R; [2]) | ratio rCTR/rAMY3R (rAMY3R) | HMWP ([1]; analogs 1–9 (pH 7.5 series)) | HMWP ([1]; analogs 10–21 (pH 4.0 series)) | IC50 (rAMY3R; SPA binding assay, Tables S13 and S15, read-out: rAMY3R pIC50 (converted)) | IC50 (rAMY3R; SPA, BHK cell membranes, 125I-rat amylin, 120 min 25 °C, read-out: rAMY3R IC50) |
| --- | --- | --- | --- | --- | --- | --- |
| CC(C)C[C@H](NC(=O)[C@H](CCCNC(=N)N)NC(=O)[C@H](CCC(N)=O)NC(=O)[C@@H](NC(=O)[C@H](C)NC(=O)[C@@H]1CSSC[C@H](NC(=O)[C@@H](N)CCCCNC(=O)CC[C@H](NC(=O)CC[C@H](NC(=O)CCCCCCCCCCCCCCCCCCC(=O)O)C(=O)O)C(=O)O)C(=O)N[C@@H](CC(N)=O)C(=O)N[C@@H]([C@@H](C)O)C(=O)N[C@@H](C)C(=O)N[C@@H]([C@@H](C)O)C(=O)N1)[C@@H](C)O)C(=O)N[C@@H](C)C(=O)N[C@@H](CC(=O)O)C(=O)N[C@@H](Cc1ccccc1)C(=O)N[C@@H](CC(C)C)C(=O)N[C@@H](CCCNC(=N)N)C(=O)N[C@@H](Cc1c[nH]cn1)C(=O)N[C@@H](CO)C(=O)N[C@@H](CO)C(=O)N[C@@H](CC(N)=O)C(=O)N1CCC[C@H]1C(=O)N[C@@H](Cc1ccccc1)C(=O)NCC(=O)N[C@@H](C)C(=O)N1CCC[C@H]1C(=O)N[C@@H](CC(C)C)C(=O)N[C@@H](CO)C(=O)N[C@@H](CO)C(=O)N[C@H](C(=O)N[C@@H](CC(N)=O)C(=O)N[C@H](C(=O)NCC(=O)N[C@@H](CO)C(=O)N[C@@H](CC(=O)O)C(=O)N[C@H](C(=O)N[C@@H](Cc1ccc(O)cc1)C(N)=O)[C@@H](C)O)C(C)C)[C@@H](C)O [Peptide 7] (H-K([γGlu-γGlu-C20 diacid])CNTATCATQRLADFLRHSSNPFGAPLSSTNVGSDTY-NH2; disulfide 2-7) | 9.00 | 7.5 | 3% |  |  |  |
| CC[C@H](C)[C@H](NC(=O)[C@H](C)NC(=O)CNC(=O)[C@H](Cc1ccccc1)NC(=O)[C@H](CC(N)=O)NC(=O)[C@@H]1CCCN1C(=O)[C@H](CO)NC(=O)[C@H](CO)NC(=O)[C@H](Cc1c[nH]cn1)NC(=O)[C@H](CCCNC(=N)N)NC(=O)[C@H](CC(C)C)NC(=O)[C@H](Cc1ccccc1)NC(=O)[C@H](CC(N)=O)NC(=O)[C@H](C)NC(=O)[C@H](CC(C)C)NC(=O)[C@H](CCCNC(=N)N)NC(=O)[C@H](CCC(N)=O)NC(=O)[C@@H](NC(=O)[C@H](C)NC(=O)[C@@H]1CSSC[C@H](NC(=O)[C@H](CCCCN)NC(=O)COCCOCCNC(=O)COCCOCCNC(=O)CC[C@H](NC(=O)CCCCCCCCCCCCCCCCCCC(=O)O)C(=O)O)C(=O)N[C@@H](CC(N)=O)C(=O)N[C@@H]([C@@H](C)O)C(=O)N[C@@H](C)C(=O)N[C@@H]([C@@H](C)O)C(=O)N1)[C@@H](C)O)C(=O)N1CCC[C@H]1C(=O)N[C@@H](CO)C(=O)N[C@@H](CO)C(=O)N[C@H](C(=O)N[C@@H](CC(N)=O)C(=O)N[C@H](C(=O)NCC(=O)N[C@@H](CO)C(=O)N[C@@H](CC(N)=O)C(=O)N[C@H](C(=O)N[C@@H](Cc1ccc(O)cc1)C(N)=O)[C@@H](C)O)C(C)C)[C@@H](C)O [Peptide 10] | 8.52 | 116 |  | 2.7% |  |  |
| CC[C@H](C)[C@H](NC(=O)[C@H](C)NC(=O)CNC(=O)[C@H](Cc1ccccc1)NC(=O)[C@H](CC(N)=O)NC(=O)[C@@H]1CCCN1C(=O)[C@H](CO)NC(=O)[C@H](CO)NC(=O)[C@H](Cc1c[nH]cn1)NC(=O)[C@H](CCCNC(=N)N)NC(=O)[C@H](CC(C)C)NC(=O)[C@H](Cc1ccccc1)NC(=O)[C@H](CC(N)=O)NC(=O)[C@H](C)NC(=O)[C@H](CC(C)C)NC(=O)[C@H](CCCNC(=N)N)NC(=O)[C@H](CCC(N)=O)NC(=O)[C@@H](NC(=O)[C@H](C)NC(=O)[C@@H]1CSSC[C@H](NC(=O)[C@H](CCCCN)NC(=O)CC[C@H](NC(=O)CCCCCCCCCCCCCCCCCCC(=O)O)C(=O)O)C(=O)N[C@@H](CC(N)=O)C(=O)N[C@@H]([C@@H](C)O)C(=O)N[C@@H](C)C(=O)N[C@@H]([C@@H](C)O)C(=O)N1)[C@@H](C)O)C(=O)N1CCC[C@H]1C(=O)N[C@@H](CO)C(=O)N[C@@H](CO)C(=O)N[C@H](C(=O)N1CCC[C@H]1C(=O)N[C@H](C(=O)NCC(=O)N[C@@H](CO)C(=O)N[C@@H](CCC(=O)O)C(=O)N[C@H](C(=O)N[C@@H](Cc1ccc(O)cc1)C(N)=O)[C@@H](C)O)C(C)C)[C@@H](C)O [Peptide 11] ({C20 diacid-γGlu}-KCNTATCATQRLANFLRHSSPNFGAIPSSTPVGSETY-NH2; disulfide 2-7) |  | 44 |  | 2.6% | 1.17 nM | 1.17 nM |
| CC[C@H](C)[C@H](NC(=O)[C@H](C)NC(=O)CNC(=O)[C@H](Cc1ccccc1)NC(=O)[C@H](CC(N)=O)NC(=O)[C@@H]1CCCN1C(=O)[C@H](CO)NC(=O)[C@H](CO)NC(=O)[C@H](Cc1c[nH]cn1)NC(=O)[C@H](CCCNC(=N)N)NC(=O)[C@H](CC(C)C)NC(=O)[C@H](Cc1ccccc1)NC(=O)[C@H](CCC(=O)O)NC(=O)[C@H](C)NC(=O)[C@H](CC(C)C)NC(=O)[C@H](CCCNC(=N)N)NC(=O)[C@H](CCC(N)=O)NC(=O)[C@@H](NC(=O)[C@H](C)NC(=O)[C@@H]1CSSC[C@H](NC(=O)[C@H](CCCCN)NC(=O)CC[C@H](NC(=O)CCCCCCCCCCCCCCCCCCC(=O)O)C(=O)O)C(=O)N[C@@H](CC(N)=O)C(=O)N[C@@H]([C@@H](C)O)C(=O)N[C@@H](C)C(=O)N[C@@H]([C@@H](C)O)C(=O)N1)[C@@H](C)O)C(=O)N1CCC[C@H]1C(=O)N[C@@H](CO)C(=O)N[C@@H](CO)C(=O)N[C@H](C(=O)N[C@@H](CC(N)=O)C(=O)N[C@H](C(=O)NCC(=O)N1CCC[C@H]1C(=O)N[C@@H](CC(N)=O)C(=O)N[C@H](C(=O)N[C@@H](Cc1ccc(O)cc1)C(N)=O)[C@@H](C)O)C(C)C)[C@@H](C)O [Peptide 12] ({C20 diacid-γGlu}-KCNTATCATQRLAEFLRHSSPNFGAIPSSTNVGPNTY-NH2; disulfide 2-7) | 9.75 | 34 |  | 3.9% |  |  |
